The source of these data is patent US20210369853A1, “TARGETED PROTEASE DEGRADATION PLATFORM” (EUBULUS BIOTHERAPEUTICS INC., priority 2018, published 2021).

SMILES strings stand for the structures. Where only a bound is given, the exact number is not on record here.

For this test, the system named is Human Monocytic Leukemia MV4-11. Description: Cell proliferation experiment (Alarm blue, 72 h, EC50). It counts as cell-based. As to conditions: Homo sapiens, MV4-11, MV4;11 cells. On the procedure:
(2.1) Cell Proliferation Experiment:
Reagents: RPMI-1640 medium, McCoy's 5A medium, IMDM medium, MEM medium, L-15 medium, fetal bovine serum, Penicillin-Streptomycin double antibody, trypsin, etc., 2-mercaptoethanol, NEAA, pyruvate, etc.
The cells were cultured in conventional ways, and the cells should be passed at least for at least 2 generations before plating. Cells at the logarithmic growth phase are collected, prepared into single cell suspensions and counted. The concentration of cells was adjusted to the desired concentration, and cells were inoculated into a 96-well cell culture plate at 100 μl per well. 100 μL of complete medium of the test compound were added to each well, set up 2 duplicates for each concentration, and diluted with a 5-fold gradient, and continue to culture for 72 h. All cells were subjected to EC50 test for corresponding samples.
The fluorescence intensity of each well was detected using the Alarm blue method, and EC50 was calculated.
EC50 was calculated according to the following formula:
Y=Max+(Min−Max)/[1+(X/EC50)×Slope]
wherein Min, Max and Slope represent the minimum, maximum and slope respectively.
As to `Cc1ncsc1-c1ccc(CNC(=O)[C@@H]2C[C@@H](O)CN2C(=O)[C@@H](NC(=O)CCCNC(=O)c2ccc(Nc3ncc4c(n3)-c3ccc(Cl)cc3C(c3c(F)cccc3F)=NC4)cc2)C(C)(C)C)cc1` [UB-180505], the 50% effective concentration (EC50) was in the range of 100 to 1000 nM. Under `Cc1ncsc1-c1ccc(CNC(=O)[C@@H]2C[C@@H](O)CN2C(=O)[C@@H](NC(=O)COCCCNC(=O)c2ccc(Nc3ncc4c(n3)-c3ccc(Cl)cc3C(c3c(F)cccc3F)=NC4)cc2)C(C)(C)C)cc1` [UB-180506] stands 100 to 1000 nM. `Cc1ncsc1-c1ccc(CNC(=O)[C@@H]2C[C@@H](O)CN2C(=O)[C@@H](NC(=O)COCCOCCOCCNC(=O)c2ccc(Nc3ncc4c(n3)-c3ccc(Cl)cc3C(c3c(F)cccc3F)=NC4)cc2)C(C)(C)C)cc1` [UB-180514] came in with a 50% effective concentration (EC50) of 10 to 100 nM. Then `Cc1ncsc1-c1ccc(CNC(=O)[C@@H]2C[C@@H](O)CN2C(=O)[C@@H](NC(=O)COCCOCCOCCOCCNC(=O)c2ccc(Nc3ncc4c(n3)-c3ccc(Cl)cc3C(c3c(F)cccc3F)=NC4)cc2)C(C)(C)C)cc1` [UB-180527], with > 1000 nM. `Cc1ncsc1-c1ccc(CNC(=O)[C@@H]2C[C@@H](O)CN2C(=O)[C@@H](NC(=O)CCOCCOCCOCCOCCNC(=O)c2ccc(Nc3ncc4c(n3)-c3ccc(Cl)cc3C(c3c(F)cccc3F)=NC4)cc2)C(C)(C)C)cc1` [UB-180531] returned a concentration for a half-maximal effect (EC50) of 10 to 100 nM. Turning to `Cc1ncsc1-c1ccc(CNC(=O)[C@@H]2C[C@@H](O)CN2C(=O)[C@@H](NC(=O)COCCNC(=O)c2ccc(Nc3ncc4c(n3)-c3ccc(Cl)cc3C(c3c(F)cccc3F)=NC4)cc2)C(C)(C)C)cc1` [UB-180532], the 50% effective concentration (EC50) was in the range of 100 to 1000 nM. The compound `Cc1ncsc1-c1ccc(CNC(=O)[C@@H]2C[C@@H](O)CN2C(=O)[C@@H](NC(=O)COCCOCCNC(=O)c2ccc(Nc3ncc4c(n3)-c3ccc(Cl)cc3C(c3c(F)cccc3F)=NC4)cc2)C(C)(C)C)cc1` [UB-180533] registered an EC50 of 100 to 1000 nM. Under `Cc1ncsc1-c1ccc(CNC(=O)[C@@H]2C[C@@H](O)CN2C(=O)[C@@H](NC(=O)CCOCCOCCNC(=O)c2ccc(Nc3ncc4c(n3)-c3ccc(Cl)cc3C(c3c(F)cccc3F)=NC4)cc2)C(C)(C)C)cc1` [UB-180536] stands 100 to 1000 nM; under `Cc1ncsc1-c1ccc(CNC(=O)[C@@H]2C[C@@H](O)CN2C(=O)[C@@H](NC(=O)COCCCCNC(=O)c2ccc(Nc3ncc4c(n3)-c3ccc(Cl)cc3C(c3c(F)cccc3F)=NC4)cc2)C(C)(C)C)cc1` [UB-180558], 100 to 1000 nM. `CC[C@@H]1C(=O)N(C)c2cnc(Nc3ccc(C(=O)NCCOCCOCCNc4cccc5c4CN(C4CCC(=O)NC4=O)C5=O)cc3OC)nc2N1Cc1ccc(Br)cc1` (some centres unmarked) [UB-180568] came in with an EC50 of 10 to 100 nM. Under `CC[C@@H]1C(=O)N(C)c2cnc(Nc3ccc(C(=O)NCCOCCOCCOCCNc4cccc5c4CN(C4CCC(=O)NC4=O)C5=O)cc3OC)nc2N1Cc1ccc(Br)cc1` (some centres unmarked) [UB-180569] stands 10 to 100 nM; under `CC[C@@H]1C(=O)N(C)c2cnc(Nc3ccc(C(=O)NCC(=O)Nc4cccc5c4CN(C4CCC(=O)NC4=O)C5=O)cc3OC)nc2N1C1CCCC1` (some centres unmarked) [UB-180570], > 1000 nM. For `CC[C@@H]1C(=O)N(C)c2cnc(Nc3ccc(C(=O)NC4(C(=O)Nc5cccc6c5CN(C5CCC(=O)NC5=O)C6=O)CC4)cc3OC)nc2N1C1CCCC1` (some centres unmarked) [UB-180571], the concentration giving a half-maximal response (EC50) was 100 to 1000 nM. For `Cc1ncsc1-c1ccc(CNC(=O)[C@@H]2C[C@@H](O)CN2C(=O)[C@@H](NC(=O)CCOCCOCCOCCOCCNC(=O)[C@]2(Cc3cccc(Nc4nccs4)n3)CC[C@@H](Oc3cccc(Cl)c3F)CC2)C(C)(C)C)cc1` [UB-180576], the 50% effective concentration (EC50) lay in the range of 100 to 1000 nM. Under `Cc1ncsc1-c1ccc(CNC(=O)[C@@H]2C[C@@H](O)CN2C(=O)[C@@H](NC(=O)COCCNC(=O)[C@]2(Cc3cccc(Nc4nccs4)n3)CC[C@@H](Oc3cccc(Cl)c3F)CC2)C(C)(C)C)cc1` [UB-180578] stands > 1000 nM.

In the case of `Cc1ncsc1-c1ccc(CNC(=O)[C@@H]2C[C@@H](O)CN2C(=O)[C@@H](NC(=O)COCCOCCOCCOCCNC(=O)[C@]2(Cc3cccc(Nc4nccs4)n3)CC[C@@H](Oc3cccc(Cl)c3F)CC2)C(C)(C)C)cc1` [UB-180580], the EC50 was 100 to 1000 nM. `Cc1ncsc1-c1ccc(CNC(=O)[C@@H]2C[C@@H](O)CN2C(=O)[C@@H](NC(=O)CCCNC(=O)[C@]2(Cc3cccc(Nc4nccs4)n3)CC[C@@H](Oc3cccc(Cl)c3F)CC2)C(C)(C)C)cc1` [UB-180583] returned an EC50 of 100 to 1000 nM. For `Cc1ncsc1-c1ccc(CNC(=O)[C@@H]2C[C@@H](O)CN2C(=O)[C@@H](NC(=O)COCCOCCOCCNC(=O)[C@]2(Cc3cccc(Nc4nccs4)n3)CC[C@@H](Oc3cccc(Cl)c3F)CC2)C(C)(C)C)cc1` [UB-180584], the concentration for a half-maximal effect (EC50) lay in the range of 100 to 1000 nM. Consider `Cc1ncsc1-c1ccc(CNC(=O)[C@@H]2C[C@@H](O)CN2C(=O)[C@@H](NC(=O)COCCCNC(=O)[C@]2(Cc3cccc(Nc4nccs4)n3)CC[C@@H](Oc3cccc(Cl)c3F)CC2)C(C)(C)C)cc1` [UB-180585], for which the EC50 is > 1000 nM. Under `Cc1ncsc1-c1ccc(CNC(=O)[C@@H]2C[C@@H](O)CN2C(=O)[C@@H](NC(=O)COCCOCCNC(=O)[C@]2(Cc3cccc(Nc4nccs4)n3)CC[C@@H](Oc3cccc(Cl)c3F)CC2)C(C)(C)C)cc1` [UB-180587] stands > 1000 nM; under `Cc1ncsc1-c1ccc(CNC(=O)[C@@H]2C[C@@H](O)CN2C(=O)[C@@H](NC(=O)COCCCCNC(=O)[C@]2(Cc3cccc(Nc4nccs4)n3)CC[C@@H](Oc3cccc(Cl)c3F)CC2)C(C)(C)C)cc1` [UB-180589], > 1000 nM; under `CC[C@@H]1c2c(C#N)ncn2-c2cnc(Nc3ccc(C(=O)NC4CCN(CCCCC(=O)N[C@H](C(=O)N5C[C@H](O)C[C@H]5C(=O)NCc5ccc(-c6scnc6C)cc5)C(C)(C)C)CC4)cc3OC)nc2N1C1CCCC1` [UB-180591], 100 to 1000 nM. Under `CC[C@@H]1c2c(C#N)ncn2-c2cnc(Nc3ccc(C(=O)NCC(=O)N[C@H](C(=O)N4C[C@H](O)C[C@H]4C(=O)NCc4ccc(-c5scnc5C)cc4)C(C)(C)C)cc3OC)nc2N1C1CCCC1` [UB-180592] stands 100 to 1000 nM. In turn, `CC[C@@H]1c2c(C#N)ncn2-c2cnc(Nc3ccc(C(=O)NCCCNc4cccc5c4C(=O)N(C4CCC(=O)NC4=O)C5=O)cc3OC)nc2N1C1CCCC1` (some centres unmarked) [UB-180593] showed an EC50 of 100 to 1000 nM. Under `CC[C@@H]1C(=O)N(C)c2cnc(Nc3ccc(C(=O)NC4CCN(CCCCC(=O)Nc5cccc6c5CN(C5CCC(=O)NC5=O)C6=O)CC4)cc3OC)nc2N1C1CCCC1` (some centres unmarked) [UB-180596] stands 10 to 100 nM; under `CC[C@@H]1c2c(C#N)ncn2-c2cnc(Nc3ccc(C(=O)NC4CCN(CCCCCOCC(=O)N[C@H](C(=O)N5C[C@H](O)C[C@H]5C(=O)NCc5ccc(-c6scnc6C)cc5)C(C)(C)C)CC4)cc3OC)nc2N1C1CCCC1` [UB-180597], > 1000 nM; under `Cc1ncsc1-c1ccc(CNC(=O)[C@@H]2C[C@@H](O)CN2C(=O)[C@@H](NC(=O)CCOCCOCCNC(=O)[C@]2(Cc3cccc(Nc4nccs4)n3)CC[C@@H](Oc3cccc(Cl)c3F)CC2)C(C)(C)C)cc1` [UB-180599], > 1000 nM. Consider `Cc1ncsc1-c1ccc(CNC(=O)[C@@H]2C[C@@H](O)CN2C(=O)[C@@H](NC(=O)CCOCCCOCCOCCNC(=O)[C@]2(Cc3cccc(Nc4nccs4)n3)CC[C@@H](Oc3cccc(Cl)c3F)CC2)C(C)(C)C)cc1` [UB-180600], for which the EC50 lay within 100 to 1000 nM. As to `CC[C@@H]1c2c(C#N)ncn2-c2cnc(Nc3ccc(C(=O)NCCNc4cccc5c4C(=O)N(C4CCC(=O)NC4=O)C5=O)cc3OC)nc2N1C1CCCC1` (some centres unmarked) [UB-180607], the concentration giving a half-maximal response (EC50) was 10 to 100 nM.

The compound `CC[C@@H]1c2c(C#N)ncn2-c2cnc(Nc3ccc(C(=O)NCCNc4cccc5c4CN(C4CCC(=O)NC4=O)C5=O)cc3OC)nc2N1C1CCCC1` (some centres unmarked) [UB-180608] came in with an EC50 of 100 to 1000 nM. Under `Cc1ncsc1-c1ccc(CNC(=O)[C@@H]2C[C@@H](O)CN2C(=O)[C@@H](NC(=O)CCOCCCOCCOCCNC(=O)c2ccc(Nc3ncc4c(n3)-c3ccc(Cl)cc3C(c3c(F)cccc3F)=NC4)cc2)C(C)(C)C)cc1` [UB-180609] stands 10 to 100 nM; under `Cc1ncsc1-c1ccc(CNC(=O)[C@@H]2C[C@@H](O)CN2C(=O)[C@@H](NC(=O)CCOCCOCCOCCNC(=O)[C@]2(Cc3cccc(Nc4nccs4)n3)CC[C@@H](Oc3cccc(Cl)c3F)CC2)C(C)(C)C)cc1` [UB-180612], 100 to 1000 nM.

In turn, `Cc1ncsc1-c1ccc(CNC(=O)[C@@H]2C[C@@H](O)CN2C(=O)[C@@H](NC(=O)CCNC(=O)c2ccc(Nc3ncc4c(n3)-c3ccc(Cl)cc3C(c3c(F)cccc3F)=NC4)cc2)C(C)(C)C)cc1` [UB-180613] yielded a half-maximal effective concentration (EC50) of 100 to 1000 nM. Consider `Cc1ncsc1-c1ccc(CNC(=O)[C@@H]2C[C@@H](O)CN2C(=O)[C@@H](NC(=O)CCNC(=O)[C@]2(Cc3cccc(Nc4nccs4)n3)CC[C@@H](Oc3cccc(Cl)c3F)CC2)C(C)(C)C)cc1` [UB-180614], for which the half-maximal effective concentration (EC50) was > 1000 nM. `Cc1ncsc1-c1ccc(CNC(=O)[C@@H]2C[C@@H](O)CN2C(=O)[C@@H](NC(=O)CCOCCOCCOCCNC(=O)c2ccc(Nc3ncc4c(n3)-c3ccc(Cl)cc3C(c3c(F)cccc3F)=NC4)cc2)C(C)(C)C)cc1` [UB-180615]: the EC50 fell in the range of 10 to 100 nM. Consider `CC[C@@H]1C(=O)N(C)c2cnc(Nc3ccc(C(=O)NCCC(=O)Nc4cccc5c4CN(C4CCC(=O)NC4=O)C5=O)cc3OC)nc2N1C1CCCC1` (some centres unmarked) [UB-180618], for which the EC50 was > 1000 nM.

On to `CC[C@@H]1C(=O)N(C)c2cnc(Nc3ccc(C(=O)NCCOCCOCCNCCC(=O)N[C@H](C(=O)N4C[C@H](O)C[C@H]4C(=O)NCc4ccc(-c5scnc5C)cc4)C(C)(C)C)cc3OC)nc2N1C1CCCC1` [UB-180619], for which the EC50 was > 1000 nM. Consider `CC[C@@H]1c2c(C#N)ncn2-c2cnc(Nc3ccc(C(=O)NCCC(=O)Nc4cccc5c4CN(C4CCC(=O)NC4=O)C5=O)cc3OC)nc2N1C1CCCC1` (some centres unmarked) [UB-180621], for which the EC50 was > 1000 nM.

As a reminder, the EC50 is the midpoint of the concentration-response curve. Read a high EC50 as a less potent agent.
